According to US9708314B2, “Heterocyclic amide compound” (NISSAN CHEMICAL INDUSTRIES, LTD., priority 2013, dated 2017):

Columns and labels:
Type in all cases: in vivo
[1] = tested on: transplanted Oryza sativa; test: Test Example 1: effect on crop, application before weed generation in submerged conditions; conditions: Application herbicide amount 320 g/ha; Seventeenth Table
Procedure, shortened: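 Submerged pot test: alluvial soil, 4 cm water, seeds sown mixed, 2.5-leaf rice transplanted; emulsion in water applied to surface day of sowing, dose g/ha; greenhouse 25–30° C.; 3 wk; 0–5 rating.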

[2] = tested on: Abutilon theophrasti; test: Test Example 4: herbicidal effect by application to foliage (diluvial soil, plastic box); conditions: application to foliage, application herbicide amount 320 g/ha
Procedure, shortened: (§1)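 Read-out is a 0–5 visual grade of herbicidal ratio (5: ≥90%, almost withered; 0: ≤5%) taken three weeks after treatment. Compound was applied as a diluted emulsion to stem and leaf parts of 14-day greenhouse-grown plants (25° C. to 30° C.) at rates expressed as g/ha.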

[3] = tested on: Alopecurus myosuroides; test: as above; conditions: application to foliage, application herbicide amount 320 g/ha
Procedure, shortened: as §1

[4] = tested on: Amaranthus retroflexus; test: as above; conditions: application to foliage, application herbicide amount 320 g/ha
Procedure, shortened: as §1

[5] = tested on: Apera spica-venti.; test: as above; conditions: application to foliage, application herbicide amount 320 g/ha
Procedure, shortened: as §1

[6] = tested on: Avena fatua; test: as above; conditions: application to foliage, application herbicide amount 320 g/ha
Procedure, shortened: as §1

[7] = tested on: Chenopodium album; test: as above; conditions: application to foliage, application herbicide amount 320 g/ha
Procedure, shortened: as §1

[8] = tested on: Digitaria ciliaris; test: as above; conditions: application to foliage, application herbicide amount 320 g/ha
Procedure, shortened: as §1

[9] = tested on: Echinochloa crus-galli var. crus-galli; test: as above; conditions: application to foliage, application herbicide amount 320 g/ha
Procedure, shortened: as §1

[10] = tested on: Galium spurium; test: as above; conditions: application to foliage, application herbicide amount 320 g/ha
Procedure, shortened: as §1

[11] = tested on: Lolium multiflorum Lam.; test: as above; conditions: application to foliage, application herbicide amount 320 g/ha
Procedure, shortened: as §1

[12] = tested on: Setaria viridis; test: as above; conditions: application to foliage, application herbicide amount 320 g/ha
Procedure, shortened: as §1

[13] = tested on: Stellaria media; test: as above; conditions: application to foliage, application herbicide amount 320 g/ha
Procedure, shortened: as §1

[14] = tested on: Veronica persica; test: as above; conditions: application to foliage, application herbicide amount 320 g/ha
Procedure, shortened: as §1

[15] = tested on: Beta vulgaris ssp. vulgaris; test: Test Example 4: effect on crop by application to foliage (diluvial soil, plastic box); conditions: application to foliage, application herbicide amount 320 g/ha
Procedure, shortened: as §1

[16] = tested on: Brassica campestris L.; test: as above; conditions: application to foliage, application herbicide amount 320 g/ha
Procedure, shortened: as §1

[17] = tested on: Glycine max; test: as above; conditions: application to foliage, application herbicide amount 320 g/ha
Procedure, shortened: as §1

[18] = tested on: Triticum aestivum; test: as above; conditions: application to foliage, application herbicide amount 320 g/ha
Procedure, shortened: as §1

[19] = tested on: Zea mays; test: as above; conditions: application to foliage, application herbicide amount 320 g/ha
Procedure, shortened: as §1

[20] = tested on: directly sowed Oryza sativa; test: as above; conditions: application to foliage, application herbicide amount 320 g/ha
Procedure, shortened: as §1

Compound | a: transplanted Oryza sativa (effect on crop grade) [1] | M: herbicidal effect on Abutilon theophrasti [2] | J: herbicidal effect on Alopecurus myosuroides [3] | N: herbicidal effect on Amaranthus retroflexus [4] | L: herbicidal effect on Apera spica-venti. [5] | I: herbicidal effect on Avena fatua [6] | O: herbicidal effect on Chenopodium album [7] | F: herbicidal effect on Digitaria ciliaris [8] | H: herbicidal effect on Echinochloa crus-galli var. crus-galli [9] | Q: herbicidal effect on Galium spurium [10] | K: herbicidal effect on Lolium multiflorum Lam. [11] | G: herbicidal effect on Setaria viridis [12] | P: herbicidal effect on Stellaria media [13] | R: herbicidal effect on Veronica persica [14] | f: effect on crop, Beta vulgaris ssp. vulgaris [15] | g: effect on crop, Brassica campestris L. [16] | d: effect on crop, Glycine max [17] | e: effect on crop, Triticum aestivum [18] | c: effect on crop, Zea mays [19] | b: effect on crop, directly sowed Oryza sativa [20]
Cn1nnnc1NC(=O)c1ccc(C(F)(F)F)n2c(C3CC3)nnc12 [2-005] | 0 (Herbicidal ratio of 5% or less (almost no effect)) | 5 (Herbicidal ratio of 90% or more (almost completely withered)) | 3 (Herbicidal ratio of 40% or more and less than 70%) | 5 (Herbicidal ratio of 90% or more (almost completely withered)) | 4 (Herbicidal ratio of 70% or more and less than 90%) | 3 (Herbicidal ratio of 40% or more and less than 70%) | 5 (Herbicidal ratio of 90% or more (almost completely withered)) | 5 (Herbicidal ratio of 90% or more (almost completely withered)) | 5 (Herbicidal ratio of 90% or more (almost completely withered)) | 4 (Herbicidal ratio of 70% or more and less than 90%) | 2 (Herbicidal ratio of 20% or more and less than 40%) | 4 (Herbicidal ratio of 70% or more and less than 90%) | 5 (Herbicidal ratio of 90% or more (almost completely withered)) | 5 (Herbicidal ratio of 90% or more (almost completely withered)) | 5 (Herbicidal ratio of 90% or more (almost completely withered)) | 4 (Herbicidal ratio of 70% or more and less than 90%) | 3 (Herbicidal ratio of 40% or more and less than 70%) | 3 (Herbicidal ratio of 40% or more and less than 70%) | 1 (Herbicidal ratio of 5% or more and less than 20%) | 0 (Herbicidal ratio of 5% or less (almost no effect))
CCC(CC)c1nnc2c(C(=O)Nc3nnnn3C)ccc(C(F)(F)F)n12 [2-006] | 4 (Herbicidal ratio of 70% or more and less than 90%) | 5 (Herbicidal ratio of 90% or more (almost completely withered)) | 2 (Herbicidal ratio of 20% or more and less than 40%) | 5 (Herbicidal ratio of 90% or more (almost completely withered)) | 4 (Herbicidal ratio of 70% or more and less than 90%) | 3 (Herbicidal ratio of 40% or more and less than 70%) | 5 (Herbicidal ratio of 90% or more (almost completely withered)) | 5 (Herbicidal ratio of 90% or more (almost completely withered)) | 5 (Herbicidal ratio of 90% or more (almost completely withered)) | 3 (Herbicidal ratio of 40% or more and less than 70%) | 1 (Herbicidal ratio of 5% or more and less than 20%) | 5 (Herbicidal ratio of 90% or more (almost completely withered)) | 5 (Herbicidal ratio of 90% or more (almost completely withered)) | 5 (Herbicidal ratio of 90% or more (almost completely withered)) | 5 (Herbicidal ratio of 90% or more (almost completely withered)) | 4 (Herbicidal ratio of 70% or more and less than 90%) | 4 (Herbicidal ratio of 70% or more and less than 90%) | 3 (Herbicidal ratio of 40% or more and less than 70%) | 1 (Herbicidal ratio of 5% or more and less than 20%) | 5 (Herbicidal ratio of 90% or more (almost completely withered))
Cn1nnnc1NC(=O)c1ccc(C(F)(F)F)n2c(-c3ccccc3)nnc12 [2-007] | 3 (Herbicidal ratio of 40% or more and less than 70%) | 5 (Herbicidal ratio of 90% or more (almost completely withered)) | 2 (Herbicidal ratio of 20% or more and less than 40%) | 5 (Herbicidal ratio of 90% or more (almost completely withered)) | 4 (Herbicidal ratio of 70% or more and less than 90%) | 3 (Herbicidal ratio of 40% or more and less than 70%) | 5 (Herbicidal ratio of 90% or more (almost completely withered)) | 5 (Herbicidal ratio of 90% or more (almost completely withered)) | 5 (Herbicidal ratio of 90% or more (almost completely withered)) | 1 (Herbicidal ratio of 5% or more and less than 20%) | 2 (Herbicidal ratio of 20% or more and less than 40%) | 4 (Herbicidal ratio of 70% or more and less than 90%) | 5 (Herbicidal ratio of 90% or more (almost completely withered)) | 5 (Herbicidal ratio of 90% or more (almost completely withered)) | 5 (Herbicidal ratio of 90% or more (almost completely withered)) | 4 (Herbicidal ratio of 70% or more and less than 90%) | 3 (Herbicidal ratio of 40% or more and less than 70%) | 2 (Herbicidal ratio of 20% or more and less than 40%) | 0 (Herbicidal ratio of 5% or less (almost no effect)) | 2 (Herbicidal ratio of 20% or more and less than 40%)
Cn1nnnc1NC(=O)c1ccc(C(F)(F)F)n2c(Cl)nnc12 [2-008] | 1 (Herbicidal ratio of 5% or more and less than 20%) | 5 (Herbicidal ratio of 90% or more (almost completely withered)) | 1 (Herbicidal ratio of 5% or more and less than 20%) | 5 (Herbicidal ratio of 90% or more (almost completely withered)) | 1 (Herbicidal ratio of 5% or more and less than 20%) | 3 (Herbicidal ratio of 40% or more and less than 70%) | 5 (Herbicidal ratio of 90% or more (almost completely withered)) | 3 (Herbicidal ratio of 40% or more and less than 70%) | 4 (Herbicidal ratio of 70% or more and less than 90%) | 3 (Herbicidal ratio of 40% or more and less than 70%) | 2 (Herbicidal ratio of 20% or more and less than 40%) | 2 (Herbicidal ratio of 20% or more and less than 40%) | 5 (Herbicidal ratio of 90% or more (almost completely withered)) | 4 (Herbicidal ratio of 70% or more and less than 90%) | 5 (Herbicidal ratio of 90% or more (almost completely withered)) | 3 (Herbicidal ratio of 40% or more and less than 70%) | 3 (Herbicidal ratio of 40% or more and less than 70%) | 2 (Herbicidal ratio of 20% or more and less than 40%) | 0 (Herbicidal ratio of 5% or less (almost no effect)) | 1 (Herbicidal ratio of 5% or more and less than 20%)
